Data on seven molecules can be found in patent publication US20030114393A1 (priority 1999, published 2003).

Where two headings read alike, the source gives them in different places.

For data set [1], the system named is MCF-7-AdrR cells. The data set can be described thus: cells. The following applies: for reduction of cell viability by adriamycin in the presence of the steroidal alkaloid: 10 μM alkaloid fixed, increasing adriamycin up to 10 μM, compared with drug-free incubations; for EC50: Homo sapiens, read-out: EC50 of sensitization of the cells to adriamycin; for reduction of cell survival by the steroidal alkaloid alone: alkaloid alone (10 μM), MCF-7-AdrR, MTT. Here is the method:
Cells were plated in 96-well plates at a density of 4×10^3 cells/well in 0.1 ml drug-free DMEM containing 5% fetal calf serum, and incubated at 37° C. for 48 h. After this time, cytotoxic drugs (adriamycin or vinblastine) were added to the wells at the indicated concentrations, in the absence or presence of the tested steroidal alkaloids, and the cells were further incubated for an additional 48-72 h. The cytotoxic activity of the drugs was then determined using a standard MTT cell survival assay (Hansen, M. B. et al., J. Immunol. Meth 119: 203-210. The […] reagent (diluted from a 5 mg/ml solution in PBS) was added to all the wells at a final concentration of 0.6 mg/ml and the cells were further incubated at 37° C. for 2 or 3 h. The reaction was terminated by adding 100 μl/well of an extraction solution consisting of 20% (w/v) sodium dodecyl sulfate (SDS) in 50% aqueous dimethyl formamide solution, pH 4.8. The plates were left overnight at room temperature in the dark, following which the absorbance was read at 570-nm using an ELISA plate reader. […] Data points represent the mean±S.D. of a quadruplicate determination from a representative experiment that was repeated at least twice. The results are expressed as a percentage of control, drug-free wells.
The cytotoxic effect of the drugs was evaluated by utilizing the MTT cell viability assay, a standard assay for assessing drug resistance and its reversal. Routinely, MCF-7-AdrR cells were exposed to increasing concentrations of drugs for 48 h and the number of viable cells was quantitated after adding the MTT reagent.

For data set [2] the following is noted: literature (Keeler, 1978; Gaffield and Keeler, 1996); cited from earlier work.
Data set [3] relates to MCF-7-AdrR cells. Kind of data set: TMR (tetramethylrosamine chloride) accumulation, in vitro drug uptake model. It is filed as cell-based, human. The settings on record: for EC50: Homo sapiens, 0.5 h, read-out: concentration half maximally effective on TMR accumulation; for maximal stimulation of TMR accumulation / effect on TMR accumulation: MCF-7-AdrR cells; for maximal stimulation of TMR accumulation: 10 μM TMR, 30 minutes at 37° C., relative to TMR alone; for effect on TMR accumulation: FIG. 1A/1B. On the procedure:
The effect of steroidal alkaloids on drug transport was examined by measuring cellular accumulation of TMR, a fluorescent model drug, according to Eytan et al. (Eytan, G. D. et al., Eur. J. Biochem. 248: 104-112, 1997) with some modifications. Cells were seeded in 24-well tissue culture plates at a density of 0.5×10^5 cells/well and were grown for 24 h in growth medium supplemented with 0.5% FCS. TMR (diluted from a 10 mM stock in DMSO) was added to the cells at a final concentration of 10 μM, in 0.5 ml of growth medium in the presence or absence of the tested alkaloids (given prior to the dye as indicated). Cells were incubated with TMR and the tested drug for 30 minutes at 37° C. To terminate the assay, the plates were placed on ice and the cells were washed three times with ice-cold phosphate-buffered saline (PBS) in order to remove residual TMR. The cells were then lysed by incubation with 0.5 ml of 0.5 N NaOH for 20 minutes at room temperature, and the lysates were neutralized with 0.5 ml of 0.5 N HCl and collected. Cell-associated TMR was determined by measuring the fluorescence intensity of the lysates using a fluorescence spectrophotometer (excitation at 555-nm, emission at 575-nm). Blank values obtained at zero time were subtracted from all the fluorescence values and the results were normalized to the amount of cellular protein in each well. Experiments were carried out in triplicates and were repeated at least twice. Results are expressed as a percentage of incubations with TMR alone.
Expression of multidrug transporters markedly decreases drug accumulation in MDR cells. Conversely, in such cells drug accumulation is increased by inhibition of P-gp and related proteins with MDR reversal agents. TMR accumulation was utilized to examine the effect of steroidal alkaloids on P.gp in MCF-7-AdrR adriamycin-resistant human breast adenocarcinoma cells.

Where [4] appears, read: 10 μM tested compound, increasing vinblastine, 48 h, FIG. 5.

In the case of `CC1=C2C[C@H]3[C@@H](CC=C4C[C@@H](O)CC[C@@]43C)[C@@H]2CC[C@]12O[C@@H]1C[C@H](C)CN[C@H]1[C@H]2C` [cyclopamine], in the data set with MCF-7-AdrR cells [1] (48 h), the “reduction of cell viability by adriamycin in the presence of the steroidal alkaloid” value was around 90%, the EC50 is 2500 nM and the “reduction of cell survival by the steroidal alkaloid alone” value (“reduction of cell survival” below) is 10-20%. Besides, the teratogenic activity entry in data set [2] is reported as “potent teratogen”. In the data set on MCF-7-AdrR cells [3], the EC50 was around 1000 nM, the “maximal stimulation of TMR accumulation” value was 2 fold and the “effect on TMR accumulation” value was “concentration-dependent increase”.

On to `CC1=C2C(=O)[C@H]3[C@@H](CC=C4C[C@@H](O)CC[C@@]43C)[C@@H]2CC[C@]12O[C@@H]1C[C@H](C)CN[C@H]1[C@H]2C` [jervine], for which, in the data set on MCF-7-AdrR cells [1] (setting [4]), the “sensitization to vinblastine: shift of concentration-response curve to the left” value (from here on “sensitization to vinblastine: shift”) was “most effective”.

For `C[C@@H]1CN[C@H]2[C@@H](C)[C@@]3(CC[C@H]4[C@@H]5CC[C@H]6C[C@@H](O)CC[C@]6(C)[C@H]5C(=O)[C@@H]4[C@H]3C)O[C@@H]2C1` [tetrahydrojervine], the “sensitization to vinblastine: shift” value with MCF-7-AdrR cells [1] (setting [4]) is given as “most effective”.

Take `C[C@H]1CC[C@]2(NC1)O[C@H]1C[C@H]3[C@@H]4CC[C@H]5C[C@@H](O)CC[C@]5(C)[C@H]4CC[C@]3(C)[C@H]1[C@@H]2C` [tomatidine]: in the data set with MCF-7-AdrR cells [1] (48 h), the “reduction of cell viability by adriamycin in the presence of the steroidal alkaloid” value is on record as “more than 90%”, the EC50 is 5000 nM and the “reduction of cell survival” value is listed as “modest cytotoxic activity of its own”. The “reduction of cell survival” value with MCF-7-AdrR cells [1] (48 h, listed as Tomatidine) was 20-25%. In addition, the teratogenic activity result in data set [2] is listed as “no teratogenic activity”. For the same molecule, in the data set on MCF-7-AdrR cells [3], the EC50 was around 1000 nM, the “maximal stimulation of TMR accumulation” value was found to be 2.5 fold and the “effect on TMR accumulation” value was “concentration-dependent increase”.

`COc1ccc(CCN(C)CCCC(C#N)(c2ccc(OC)c(OC)c2)C(C)C)cc1OC` (stereo not drawn) [verapamil, reference compound]: in the data set on MCF-7-AdrR cells [1] (preliminary experiments, data not shown), the “effect on drug (adriamycin) sensitivity of MCF-7-AdrR cells” value is “markedly increase their drug sensitivity”. For the same molecule, the “effect on TMR accumulation” value in the data set with MCF-7-AdrR cells [3] is recorded as “back to near normal levels”.

For the molecule `Cc1c([C@H](C)[C@@H]2NC[C@@H](C)C[C@H]2O)ccc2c1C[C@H]1[C@H]2CC=C2C[C@@H](O)CC[C@@]21C` [veratramine], the “sensitization to vinblastine” value with MCF-7-AdrR cells [1] (1 μM veratramine, increasing vinblastine, 48 h, FIG. 5) is “sensitize”.

For “cyclopamine-4en-3-one [cylopamine4-en-3-one]”, the “sensitization to vinblastine: shift” value with MCF-7-AdrR cells [1] is “most effective”.
